The text below walks through data of patent publication EP4737450A1 (Longwood Pharmaceuticals (Hangzhou) Co., Ltd, priority 2023, dated 2025).

The target of experiment [1] is T1, plasma kallikrein (PKa) (Homo sapiens, UniProt P03952).
T1 construct: purchased R & D 2497-SE
The experiment in a line: PKa inhibition in kaolin-activated human platelet-poor plasma (PPP). The class given is biochemical. To be noted: Pro-Phe-Arg-AMC substrate, fluorescence signal. Here is the method:
Test Example 2. Evaluation of the compounds of the present invention in terms of PKa Inhibition in Kaolin-Activated Human PPP: Platelet-poor plasma (PPP) obtained from human whole blood, anticoagulated with Na - Citrate, was incubated with various concentrations of the test compounds and 25, 75, 250, or 750 µg/mL kaolin in assay buffer for 20 minutes at 37°C, so that a concentration response of the test compounds was obtained with respect to various kaolin concentrations. The positive drug was diluted in accordance with the reference concentration and diluted 3-fold with the diluent as the first point.
50 nL of compounds were then transferred to a 384 assay plate containing 2 replicates per well. The 384 assay plate was centrifuged at 1000 rpm/min. 2.5 µL of human plasma working solution was added to each assay well. The 384 assay plate was centrifuged at 1000 RPM. 2.5 µL of kaolin working solution was added to each assay well. The 384 assay plate was centrifuged at 1000 RPM and incubated at 25°C for 20 minutes. 5 µL of Pro-Phe-Arg-AMC working solution was added to each assay well. The 384 assay plate was centrifuged at 1000 RPM and incubated at 25°C for 60 minutes. BMG reads the fluorescence signal.
The percent inhibition of the compound was calculated according to the following formula: [formula]

The target of experiment [2] is T1, plasma kallikrein (PKa). The experiment in a line: Inhibitory activity against plasma kallikrein in vitro (fluorescence intensity enzyme assay, Pro-Phe-Arg-AMC substrate). The class given is biochemical. To be noted: Pro-Phe-Arg-AMC substrate. The method, boiled down:
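Fluorescence intensity enzyme assay with 10 nM enzyme and 60 µM Pro-Phe-Arg-AMC (final concentrations). Compounds in DMSO, tested in duplicate over a dose series. IC50 from nonlinear regression curve fitting.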

Experiment [3] addresses KLK1 (Homo sapiens, UniProt P06870). The experiment in a line: Inhibitory activity against KLK1 in vitro (biochemical assay). An outline of the steps: (§1)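 Compounds were dispensed acoustically from DMSO and tested in duplicate. IC50 values came from nonlinear regression curve fitting.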
For experiment [4], the target named is FXIa (Homo sapiens, UniProt P03951). As to the kind of experiment: Inhibitory activity against FXIa in vitro (biochemical assay). An outline of the steps:
as §1

Where [5] appears, read: plasma kallikrein enzyme assay, read-out: PKa IC50.
Setting [6] is: PKa IC50, plasma kallikrein enzyme assay.

The structures appear in SMILES notation.

KLK1, sequence (P06870 25-262, species assumed): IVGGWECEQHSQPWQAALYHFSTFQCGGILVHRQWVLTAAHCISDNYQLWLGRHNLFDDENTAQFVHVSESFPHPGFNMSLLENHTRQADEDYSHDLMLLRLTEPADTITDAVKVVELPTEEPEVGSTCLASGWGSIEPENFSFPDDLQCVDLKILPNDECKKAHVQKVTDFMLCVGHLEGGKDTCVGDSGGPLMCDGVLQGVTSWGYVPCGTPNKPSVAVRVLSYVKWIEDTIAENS
FXIa, sequence (P03951 388-625 limits assumed): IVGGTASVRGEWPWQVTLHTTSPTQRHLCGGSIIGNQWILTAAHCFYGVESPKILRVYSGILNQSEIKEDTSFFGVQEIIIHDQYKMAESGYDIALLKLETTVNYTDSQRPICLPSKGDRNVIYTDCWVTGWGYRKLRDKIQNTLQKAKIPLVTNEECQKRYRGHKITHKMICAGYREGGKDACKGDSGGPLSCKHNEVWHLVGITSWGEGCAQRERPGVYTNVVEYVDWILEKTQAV
FXIa, sequence (P03951 19-387 partner limits assumed): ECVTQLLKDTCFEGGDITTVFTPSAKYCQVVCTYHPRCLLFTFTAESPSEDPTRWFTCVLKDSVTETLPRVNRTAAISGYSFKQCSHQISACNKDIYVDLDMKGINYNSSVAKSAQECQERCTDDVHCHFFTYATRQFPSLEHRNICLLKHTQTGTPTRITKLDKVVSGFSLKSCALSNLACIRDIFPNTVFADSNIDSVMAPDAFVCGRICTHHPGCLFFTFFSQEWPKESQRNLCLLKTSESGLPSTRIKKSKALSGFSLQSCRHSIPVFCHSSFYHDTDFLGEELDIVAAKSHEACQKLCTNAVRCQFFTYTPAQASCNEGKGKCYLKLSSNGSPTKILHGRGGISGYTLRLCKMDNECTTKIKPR
T1 sequence (P03952 391-638 limits assumed): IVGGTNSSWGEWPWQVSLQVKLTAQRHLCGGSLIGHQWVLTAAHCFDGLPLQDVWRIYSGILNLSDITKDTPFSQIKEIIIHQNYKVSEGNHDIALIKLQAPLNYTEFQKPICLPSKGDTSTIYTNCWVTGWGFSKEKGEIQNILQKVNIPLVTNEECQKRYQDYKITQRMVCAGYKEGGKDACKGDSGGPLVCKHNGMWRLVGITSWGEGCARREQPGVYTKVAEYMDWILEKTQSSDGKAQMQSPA
T1 sequence (P03952 20-390 partner limits assumed): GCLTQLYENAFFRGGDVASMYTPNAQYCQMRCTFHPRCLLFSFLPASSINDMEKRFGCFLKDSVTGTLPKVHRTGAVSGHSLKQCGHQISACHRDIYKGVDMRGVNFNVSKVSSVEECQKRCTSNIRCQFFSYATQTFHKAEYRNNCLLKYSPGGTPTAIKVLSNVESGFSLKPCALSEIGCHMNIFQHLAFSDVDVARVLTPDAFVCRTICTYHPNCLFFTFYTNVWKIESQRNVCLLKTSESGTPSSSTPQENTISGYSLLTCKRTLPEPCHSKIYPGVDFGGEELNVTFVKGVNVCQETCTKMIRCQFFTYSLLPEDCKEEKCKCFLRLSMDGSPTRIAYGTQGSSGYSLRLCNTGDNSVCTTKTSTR

Consider `N#Cc1cc(N2CC3C(C2)C3(F)F)ccc1Cn1cc(C(=O)NCc2ccc(C(=N)N)cc2)cn1` (centres unmarked) [Compound 40], for which the concentration for half-maximal inhibition (IC50) (commonly the concentration that inhibits the measured activity by half) in experiment [1] is 2.15 nM; in experiment [2] (setting [5]), under 0.05 nM.
Regarding `COCc1nn(Cc2cn3cc(C4CC4)ccc3n2)cc1C(=O)NCc1ccc(C(=N)N)cc1` [Compound 39], the IC50 was 73.4 nM in experiment [1], over 10 µM in experiment [3] (values given in µM), under 0.05 nM in experiment [2] (setting [5]) and over 10 µM in experiment [4] (values given in µM).
`Cc1cc(N)nc(C)c1CNC(=O)c1nn(Cc2ccc(Cn3ccccc3=O)cc2)cc1C1CCCO1` (centres unmarked) [Compound 4, N-((6-amino-2,4-dimethylpyridin-3-yl)methyl)-1-(4-((2-oxopyridin-1(2H)-yl)methyl)benzyl)-4-(tetrahydrofuran-2-yl)-1H-pyrazole-3-carboxamide]: the IC50 in experiment [1] is 13.3 nM; in experiment [3] (values given in µM) it was over 10 µM; in experiment [2] (setting [5]), 0.155 nM; in experiment [4] (values given in µM), over 10 µM.
For `N=C(N)c1ccc(CNC(=O)c2cnn(Cc3ccc(Oc4ccccc4)cc3)c2)cc1` [Compound 128], the IC50 in experiment [1] was 13.2 nM; in experiment [3] (values given in µM), over 10 µM; in experiment [2] (setting [6]), 0.56 nM; in experiment [4] (values given in µM), over 10 µM.
In the case of `Cc1cc(N)nc(C)c1CNC(=O)c1ncn(Cc2ccc(Cn3ccccc3=O)cc2)n1` [Compound 11, N-((6-amino-2,4-dimethylpyridin-3-yl)methyl)-1-(4-((2-oxopyridin-1(2H)-yl)methyl)benzyl)-1H-1,2,4-triazole-3-carboxamide], the IC50 is 6.08 nM in experiment [1], over 0.5 µM in experiment [3] (values in nM), 0.03 nM in experiment [2] (setting [5]) and over 0.5 µM in experiment [4] (values in nM).
Take `Cc1cc(N)nc(C)c1CNC(=O)c1coc(Cc2cn3cc(C4CC4)ccc3n2)n1` [Compound 19]: the IC50 was 23.5 nM in experiment [1], over 10 µM in experiment [3] (values given in µM), 0.633 nM in experiment [2] (setting [5]) and over 10 µM in experiment [4] (values given in µM).
For the compound `COCc1nn(Cc2ccc(Cn3ccccc3=O)cc2)cc1C(=O)NCc1ccc(C(=N)N)cc1F` [Compound 241], the IC50 in experiment [1] was 19.3 nM; in experiment [3] (values given in µM) it was over 10 µM; in experiment [2] (setting [5]) it was 0.08 nM; in experiment [4] (values given in µM) it was over 10 µM.
Turning to `COCc1nn(Cc2ccc(Cn3ccccc3=O)cc2)cc1C(=O)NCc1c(C)cc(N)nc1C` [Compound 2, N-((6-amino-2,4-dimethylpyridin-3-yl)methyl)-3-(methoxymethyl)-1-(4-((2-oxopyridin-1(2H)-yl)methyl)benzyl)-1H-pyrazole-4-carboxamide], the IC50 was 6.8 nM in experiment [1], over 10 µM in experiment [3] (values given in µM), 0.517 nM in experiment [2] (setting [5]) and over 10 µM in experiment [4] (values given in µM).
Turning to `N=C(N)c1ccc(CNC(=O)c2cnn(Cc3ccc(CC4CC4)cc3)c2)cn1` [Compound 242], the IC50 in experiment [1] was 40.7 nM; in experiment [3] (values given in µM), over 10 µM; in experiment [2] (setting [5]), 2.27 nM; in experiment [4] (values given in µM), over 10 µM.
For `N#Cc1cccc([C@@H](NCC2CC2)c2ccc(F)c(NC(=O)c3cc(C(F)(F)F)nn3-c3cccc(CN)c3)c2)c1` [Berotralstat, reference compound], the IC50 in experiment [1] is 56.3 nM; in experiment [3] (values given in µM) it was over 10 µM; in experiment [2] (setting [5]) it was 2.21 nM; in experiment [4] (values given in µM) it was over 10 µM.
On to `CN1CCc2cnc(CNC(=O)c3cnn(Cc4ccc(Cn5ccccc5=O)cc4)c3)c(F)c21` [Compound 383], for which the IC50 was over 10 µM in experiment [3] (values given in µM), 1.39 nM in experiment [2] (setting [6]) and over 10 µM in experiment [4] (values given in µM).
`Cc1cc(N)nc(C)c1CNC(=O)c1nsc(Cc2ccc(Cn3ccccc3=O)cc2)n1` [Compound 67]: the IC50 in experiment [3] (values given in µM) is over 10 µM; in experiment [2] (setting [5]), 0.29 nM; in experiment [4] (values given in µM), over 10 µM.
Regarding `COc1cc(Cn2cc(C(=O)NCc3ccc(C(=N)N)cc3)cn2)cc(OC)c1C(=O)C1CC1` [Compound 371], the half-inhibitory concentration (IC50) in experiment [3] (values given in µM) is over 10 µM; in experiment [2] (setting [5]) it was over 100 nM; in experiment [4] (values given in µM), over 10 µM.
Regarding `Cc1nc(N)ccc1CNC(=O)c1ncn(Cc2ccc(Cn3ccccc3=O)cc2)n1` [Compound 27], the IC50 in experiment [3] (values given in µM) is over 10 µM; in experiment [2] (setting [5]), 1.48 nM; in experiment [4] (values given in µM), over 10 µM.
Regarding `Cc1cc(N)nc(C)c1CNC(=O)c1cn(Cc2cn3cc(C4CC4)ccc3n2)nn1` [Compound 6, N-((6-amino-2,4-dimethylpyridin-3-yl)methyl)-1-(6-cyclopropylimidazo[1,2-a]pyridin-2-yl)methyl-1H-1,2,3-triazole-4-carboxamide], the values for the IC50 in experiment [3] (values in nM), in experiment [2] (setting [5]) and in experiment [4] (values in nM) were under 0.5 µM, 0.032 nM and under 0.5 µM, respectively.
As for `N=C(N)c1ccc(CNC(=O)c2cnn(Cc3ccc(CC4CC4)cc3)c2)c(F)c1` [Compound 270], the IC50 in experiment [3] (values given in µM) is over 10 µM; in experiment [2] (setting [5]), 0.18 nM; in experiment [4] (values given in µM) it was over 10 µM.
With `Cc1cc2nccn2c(C)c1CNC(=O)c1nc(Cc2ccc(Cn3ccccc3=O)cc2)ns1` [Compound 137], the IC50 was over 10 µM in experiment [3] (values given in µM), 0.9 nM in experiment [2] (setting [5]) and over 10 µM in experiment [4] (values given in µM).
Regarding `CN(C)c1ccnc(CNC(=O)c2cn(Cc3ccc(Cn4ccccc4=O)cc3)nc2C2CC2(F)F)c1F` (centres unmarked) [Compound 310], the IC50 is over 10 µM in experiment [3] (values given in µM), 1.6 nM in experiment [2] (setting [5]) and over 10 µM in experiment [4] (values given in µM).
`N=C(N)c1ccc(CNC(=O)c2cnn(Cc3cc(Cl)c(CC4CC4)c(Cl)c3)c2)cc1` [Compound 372]: the values for the IC50 in experiment [3] (values given in µM), in experiment [2] (setting [5]) and in experiment [4] (values given in µM) were over 10 µM, 0.85 nM and over 10 µM, respectively.
For `COCc1nn(Cc2ccc(Cn3ccccc3=O)cc2)cc1C(=O)N[C@@H]1CCc2c1ncn2C` [Compound 70], the IC50 in experiment [3] (values given in µM) is over 10 µM; in experiment [2] (setting [5]), 1.87 nM; in experiment [4] (values given in µM), over 10 µM.
With `N#Cc1cc(N2CC3C(C2)C3(F)F)ccc1Cn1cc(C(=O)NCc2ccc(C(=N)N)cc2)cn1` (centres unmarked) [Compound 8], the IC50 was under 0.5 µM in experiment [3] (values in nM), 1.22 nM in experiment [2] (setting [5]) and under 0.5 µM in experiment [4] (values in nM).
Turning to `COCc1nn(Cc2ccc3ncc(Cl)cc3c2)cc1C(=O)NCc1c(C)cc(N)nc1C` [Compound 5, N-((6-amino-2,4-dimethylpyridin-3-yl)methyl)-1-((3-chloroquinolin-6-yl)methyl)-3-(methoxymethyl)-1H-pyrazole-4-carboxamide], the IC50 in experiment [3] (values in nM) is under 0.5 µM; in experiment [2] (setting [5]) it was 0.6 nM; in experiment [4] (values in nM), under 0.5 µM.
As to `Cc1cc(N)nc(C)c1CNC(=O)c1ccn(Cc2ccc(Cn3cccc(C)c3=O)cc2)n1` [Compound 75], the IC50 in experiment [3] (values given in µM) was over 10 µM; in experiment [2] (setting [5]), 0.22 nM; in experiment [4] (values given in µM), over 10 µM.
With `COc1cc(Cn2cc(C(=O)NCc3ccc(C(=N)N)cc3)cn2)ccc1CC1CC1` [Compound 255], the results for the IC50 in experiment [3] (values given in µM), in experiment [2] (setting [5]) and in experiment [4] (values given in µM) were over 10 µM, 2.35 nM and over 10 µM, respectively.
With `COCc1nn(Cc2ccc(CC3CC3)cc2)cc1C(=O)NCc1ccc(C(=N)N)cc1` [Compound 121], the IC50 is over 10 µM in experiment [3] (values given in µM), 0.48 nM in experiment [2] (setting [5]) and over 10 µM in experiment [4] (values given in µM).
For `N=C(N)c1ccc(CNC(=O)c2cnn(Cc3c(Cl)cc(CC4CC4)cc3Cl)c2)cc1` [Compound 347], the IC50 in experiment [3] (values given in µM) is over 10 µM; in experiment [2] (setting [5]), 1.04 nM; in experiment [4] (values given in µM) it was over 10 µM.
With `Cc1cc(N)nc(C)c1CNC(=O)c1noc(Cc2ccc(Cn3ccccc3=O)cc2)n1` [Compound 48], the IC50 was over 10 µM in experiment [3] (values given in µM), 0.38 nM in experiment [2] (setting [5]) and over 10 µM in experiment [4] (values given in µM).
